Measurements as given in ChEMBL document CHEMBL5236585, “Design, synthesis and antifungal activities of novel triazole derivatives with selenium-containing hydrophobic side chains” (Bioorg Med Chem Lett, 2022).

Columns and labels:
Candida albicans [1] = test: Antifungal activity against Candida albicans ATCC SC5314 assessed as inhibition of fungal growth by microdilution method; format: functional
[2] = biological target: T1, Lanosterol 14-alpha demethylase (Candida albicans (strain SC5314 / ATCC MYA-2876) (Yeast), UniProt P10613); test: Inhibition of CYP51 in Candida albicans SC5314 assessed as ergosterol level at 64 ug/ml by GC-MS analysis (reference value: 98.3 %); design: scale not given: the % may be the effect or the level left; settings: at 64 µg/mL
[3] = biological target: T1, Lanosterol 14-alpha demethylase; test: Inhibition of CYP51 in Candida albicans SC5314 assessed as obtusifoliol level at 32 ug/ml by GC-MS analysis (reference value: 0 %); design: scale not given: the % may be the effect or the level left; settings: at 32 µg/mL
[4] = biological target: T1, Lanosterol 14-alpha demethylase; test: Inhibition of CYP51 in Candida albicans SC5314 assessed as lanosterol level at 32 ug/ml by GC-MS analysis (reference value: 1.7 %); design: scale not given: the % may be the effect or the level left; settings: at 32 µg/mL
[5] = biological target: T1, Lanosterol 14-alpha demethylase; test: Inhibition of CYP51 in Candida albicans SC5314 assessed as obtusifoliol level at 8 ug/ml by GC-MS analysis (reference value: 0 %); design: scale not given: the % may be the effect or the level left; settings: at 8 µg/mL
[6] = biological target: T1, Lanosterol 14-alpha demethylase; test: Inhibition of CYP51 in Candida albicans SC5314 assessed as lanosterol level at 64 ug/ml by GC-MS analysis (reference value: 1.7 %); design: scale not given: the % may be the effect or the level left; settings: at 64 µg/mL
[7] = biological target: T1, Lanosterol 14-alpha demethylase; test: Inhibition of CYP51 in Candida albicans SC5314 assessed as eburicol level at 8 ug/ml by GC-MS analysis (reference value: 0 %); design: scale not given: the % may be the effect or the level left; settings: at 8 µg/mL
Candida tropicalis = test: Antifungal activity against Candida tropicalis CGMCC 2.3739 assessed as inhibition of fungal growth by microdilution method; format: functional
HL-60 = test: Cytotoxicity against human HL-60 cells assessed as inhibition of cell growth by MTT assay; format: functional, cell-based
[8] = biological target: T1, Lanosterol 14-alpha demethylase; test: Inhibition of CYP51 in Candida albicans SC5314 assessed as lanosterol level at 16 ug/ml by GC-MS analysis (reference value: 1.7 %); design: scale not given: the % may be the effect or the level left; settings: at 16 µg/mL
Pichia kudriavzevii = test: Antifungal activity against Candida krusei AS 2.1045 assessed as inhibition of fungal growth by microdilution method; format: functional
Nakaseomyces glabratus = test: Antifungal activity against clinical isolate Candida glabrata assessed as inhibition of fungal growth by microdilution method; format: functional
[9] = biological target: T1, Lanosterol 14-alpha demethylase; test: Inhibition of CYP51 in Candida albicans SC5314 assessed as ergosterol level at 8 ug/ml by GC-MS analysis (reference value: 98.3 %); design: scale not given: the % may be the effect or the level left; settings: at 8 µg/mL
PC-3 = test: Cytotoxicity against human PC-3 cells assessed as inhibition of cell growth by MTT assay; format: functional, cell-based
[10] = biological target: T1, Lanosterol 14-alpha demethylase; test: Inhibition of CYP51 in Candida albicans SC5314 assessed as eburicol level at 16 ug/ml by GC-MS analysis (reference value: 0 %); design: scale not given: the % may be the effect or the level left; settings: at 16 µg/mL
[11] = biological target: T1, Lanosterol 14-alpha demethylase; test: Inhibition of CYP51 in Candida albicans SC5314 assessed as ergosterol level at 16 ug/ml by GC-MS analysis (reference value: 98.3 %); design: scale not given: the % may be the effect or the level left; settings: at 16 µg/mL
Cryptococcus neoformans = test: Antifungal activity against Cryptococcus neoformans CGMCC 2.3161 assessed as inhibition of fungal growth by microdilution method; format: functional
Candida parapsilosis = test: Antifungal activity against Candida parapsilosis 22019 assessed as inhibition of fungal growth by microdilution method; format: functional; settings: Lodderomyces parapsilosis
[12] = biological target: T1, Lanosterol 14-alpha demethylase; test: Inhibition of CYP51 in Candida albicans SC5314 assessed as eburicol level at 64 ug/ml by GC-MS analysis (reference value: 0 %); design: scale not given: the % may be the effect or the level left; settings: at 64 µg/mL
[13] = biological target: T1, Lanosterol 14-alpha demethylase; test: Inhibition of CYP51 in Candida albicans SC5314 assessed as obtusifoliol level at 64 ug/ml by GC-MS analysis (reference value: 0 %); design: scale not given: the % may be the effect or the level left; settings: at 64 µg/mL
[14] = biological target: T1, Lanosterol 14-alpha demethylase; test: Inhibition of CYP51 in Candida albicans SC5314 assessed as lanosterol level at 8 ug/ml by GC-MS analysis (reference value: 1.7 %); design: scale not given: the % may be the effect or the level left; settings: at 8 µg/mL
[15] = biological target: T1, Lanosterol 14-alpha demethylase; test: Inhibition of CYP51 in Candida albicans SC5314 assessed as obtusifoliol level at 16 ug/ml by GC-MS analysis (reference value: 0 %); design: scale not given: the % may be the effect or the level left; settings: at 16 µg/mL
[16] = biological target: T1, Lanosterol 14-alpha demethylase; test: Inhibition of CYP51 in Candida albicans SC5314 assessed as eburicol level at 32 ug/ml by GC-MS analysis (reference value: 0 %); design: scale not given: the % may be the effect or the level left; settings: at 32 µg/mL
MDA-MB-231 = test: Cytotoxicity against human MDA-MB-231 cells assessed as inhibition of cell growth by MTT assay; format: functional, cell-based
[17] = biological target: T1, Lanosterol 14-alpha demethylase; test: Inhibition of CYP51 in Candida albicans SC5314 assessed as ergosterol level at 32 ug/ml by GC-MS analysis (reference value: 98.3 %); design: scale not given: the % may be the effect or the level left; settings: at 32 µg/mL
Candida albicans [18] = test: Antifungal activity against Candida albicans CPCC 400616 assessed as inhibition of fungal growth by microdilution method; format: functional
Aspergillus fumigatus = test: Antifungal activity against Aspergillus fumigatus CGMCC 3.7795 assessed as inhibition of fungal growth by microdilution method; format: functional

T1 sequence (P10613 whole entry): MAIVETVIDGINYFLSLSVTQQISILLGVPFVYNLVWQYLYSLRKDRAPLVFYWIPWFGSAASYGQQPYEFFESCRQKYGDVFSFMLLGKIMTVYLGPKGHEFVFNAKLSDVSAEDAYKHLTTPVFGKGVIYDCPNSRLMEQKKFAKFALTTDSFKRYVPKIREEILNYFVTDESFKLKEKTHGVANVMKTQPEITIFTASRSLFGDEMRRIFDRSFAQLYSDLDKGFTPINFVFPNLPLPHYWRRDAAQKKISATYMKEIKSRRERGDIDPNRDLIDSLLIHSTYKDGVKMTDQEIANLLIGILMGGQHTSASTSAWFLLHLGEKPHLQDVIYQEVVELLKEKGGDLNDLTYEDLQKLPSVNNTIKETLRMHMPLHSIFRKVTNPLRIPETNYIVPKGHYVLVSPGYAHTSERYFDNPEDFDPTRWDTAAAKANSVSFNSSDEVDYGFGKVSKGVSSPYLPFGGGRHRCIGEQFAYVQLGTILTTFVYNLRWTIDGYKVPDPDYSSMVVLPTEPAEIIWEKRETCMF

MIC (Candida albicans [1]): 0.01 µg/mL
Activity [2]: 0.18%
Activity [3]: 9.28%
Activity [4]: 21.1%
Activity [5]: 11.1%
Activity [6]: 19.6%
Activity [7]: 66.2%
MIC (Candida tropicalis): 0.25 µg/mL
Activity [8]: 20.3%
MIC (Pichia kudriavzevii): 0.25 µg/mL
MIC (Nakaseomyces glabratus): 4 µg/mL
Activity [9]: 3.5%
Activity [10]: 66.7%
Activity [11]: 2.1%
MIC (Cryptococcus neoformans): 1 µg/mL
MIC (Candida parapsilosis): 0.125 µg/mL
Activity [12]: 69.3%
Activity [13]: 11.9%
Activity [14]: 19.2%
Activity [15]: 11.3%
Activity [16]: 69.2%
Activity [17]: 0.48%
MIC (Candida albicans [18]): 0.25 µg/mL
MIC (Aspergillus fumigatus): 2 µg/mL
SMILES: OC(C[Se]Cc1ccccc1Br)(Cn1cncn1)c1ccc(F)cc1F (configuration not stated)
IC50 (HL-60): 18.4 µM
IC50 (PC-3): 15.6 µM
IC50 (MDA-MB-231): 17.9 µM
